Data reported in ChEMBL document CHEMBL1201862, “PubChem BioAssay data set” (2004).
The source made the active and inactive calls. Cut-off read from the data, not from the text of the source: actives have a measured IC50 and inactives only a lower limit.

Target: Envelope glycoprotein gp160 (Human immunodeficiency virus 1, UniProt Q6QLK5)
Assay: inhibitors of HIV fusion peptide binding, primary screen, biochemical, uHTS, fluorescence dequenching (AID 1986)

Chain of Envelope glycoprotein gp160 (Q6QLK5 whole entry, the tested form may be a part): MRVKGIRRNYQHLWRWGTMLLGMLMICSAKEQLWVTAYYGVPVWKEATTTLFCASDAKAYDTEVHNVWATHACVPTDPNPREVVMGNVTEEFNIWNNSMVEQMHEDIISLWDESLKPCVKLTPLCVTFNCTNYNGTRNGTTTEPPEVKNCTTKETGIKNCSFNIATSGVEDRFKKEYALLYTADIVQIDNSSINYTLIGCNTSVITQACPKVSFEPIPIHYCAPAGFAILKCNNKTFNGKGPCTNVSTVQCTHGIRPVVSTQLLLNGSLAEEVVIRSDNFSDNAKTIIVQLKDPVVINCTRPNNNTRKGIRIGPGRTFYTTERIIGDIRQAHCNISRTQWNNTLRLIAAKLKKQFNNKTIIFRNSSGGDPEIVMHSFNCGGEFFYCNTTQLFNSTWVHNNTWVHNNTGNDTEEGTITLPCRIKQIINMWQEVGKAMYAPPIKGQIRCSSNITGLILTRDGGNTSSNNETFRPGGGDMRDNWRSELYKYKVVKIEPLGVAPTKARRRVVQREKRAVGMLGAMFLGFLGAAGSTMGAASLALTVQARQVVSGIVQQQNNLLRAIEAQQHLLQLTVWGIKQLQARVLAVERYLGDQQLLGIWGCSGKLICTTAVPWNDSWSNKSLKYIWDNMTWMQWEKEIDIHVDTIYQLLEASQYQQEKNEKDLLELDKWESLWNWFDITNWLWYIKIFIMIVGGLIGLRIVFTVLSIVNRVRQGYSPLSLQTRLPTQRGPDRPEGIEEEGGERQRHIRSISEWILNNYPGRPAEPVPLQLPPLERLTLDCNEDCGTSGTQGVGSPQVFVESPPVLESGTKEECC

**Q.** COc1ccc(NS(=O)(=O)c2ccc3c(c2)[C@H]2C=CC[C@H]2[C@@H](c2ccc(C(=O)O)cc2)N3)cc1 was tested. Which IC50 did it give?
**A.** 8.25 µM (active)

**Q.** For O=C1/C(=C\c2ccc(O)c(O)c2)C(c2ccccc2)=NN1c1ccccc1, which IC50 is on record?
**A.** 17.6 µM (active)

**Q.** For CC(C)S(=O)(=O)C1=NSC2=NC(=O)/C(=C\c3ccc(-c4ccccc4)o3)C(=N)N21, which IC50 is on record?
**A.** 8.73 µM (active)
